Paper PMC8232742, “Boswellic Acids Show In Vitro Activity against Leishmania donovani” (Molecules, 2021)
Where “and” joins values, the source holds several entries; their conditions need not be identical. Identical values can stand only once. Like-named read-outs stand apart in the source and are kept apart here.

Tests used:
[1] = In vitro cytotoxicity with L-6 cells (resazurin); assay type: cell-based; conditions: rat, read-out: Cytotoxicity against L6 Rat Skeletal Myoblasts IC50
Method: (§1) In vitro tests for determination of activity against axenic amastigotes of Leishmania donovani (MHOM-ET-67/L82 strain) and cytotoxicity against mammalian cells (L6-cell-line from rat skeletal myoblasts) as well as against intramacrophage amastigotes of L. donovani were conducted at Swiss TPH according to an established protocol as reported before. For a repetition of these methods, see Supplementary File.
(§2) Biological Assays (according to [14,15])
(§3) The following biological tests were performed by applying validated method s of the Swiss TPH as previously published and described below. […]
(§4) After that, resazurin solution
(§5) (12.5 mg in 100 mL water, 10 μL) was added to each well, and the incubation continued for 2–4 h more. Then, the plates were read using a Spectramax Gemini XS microplate fluorometer (Molecular Devices Cooperation, Sunnyvale, CA, USA) and excitation and emission wavelengths of 536 and 588 nm, respectively. Data were analyzed with the software Softmax Pro (Molecular Devices Cooperation, Sunnyvale, CA, USA), which calculated IC50 values by linear regression and 4‐parameter logistic regression from the sigmoidal dose inhibition curves. […]
Aliquots containing 105 amastigotes from the axenic culture (100 μL), with or without a serial compound dilution (as specified before), were seeded in 96‐well plates. After 70 h of incubation, the plates were inspected under an inverted microscope to assure growth of the controls and sterile conditions. […]
(§6) Netherlands). Compounds were diluted with medium as indicated above before being added to parasite cultures incubated in RPMI 1640 medium without hypoxanthine, supplemented with HEPES (5.94 g/L), NaHCO3 (2.1 g/L), neomycin (100 U/mL), AlbumaxR (5 g/L) and washed human red cells A+ at 2.5% hematocrit (0.3% parasitemia).
(§7) Serial compound dilutions were prepared as before. The 96‐well plates were incubated in a humidified atmosphere at 37 °C; 4% CO2, 3% O2, 93% N2. After 48 h, 50 μL of 3H‐hypoxanthine (0.5 μCi) was added to each well of the plate. The plates were incubated for a further 24 h under the same conditions. The plates were then harvested with a Betaplate™ cell harvester (Wallac, Zurich, Switzerland), and the red blood cells were transferred onto a glass fiber filter then washed with distilled water. The dried filters were inserted into a plastic foil with 10 mL of scintillation fluid and counted in a Betaplate™ liquid scintillation counter (Wallac, Zurich, Switzerland). […]
(§8) Serial compound dilutions prepared, as before, were us ed. […] Finally, the plates were read, and the data were treated as mentioned before. […]
(§9) Extracellular amast igotes were removed by triplicate washing after further 24 h. […] Images of the plates were recorded with an ImageXpress XLS (MD) microscope and automatically analyzed using the MetaXpress Software. […]

[2] = system: Leishmania donovani axenic amastigotes (MHOM-ET-67/L82 strain); experiment: In vitro activity against L. donovani axenic amastigotes (resazurin); assay type: cell-based; conditions: for IC50: Leishmania donovani
Method: as §1
Miltefosine (≥98%, Sigma-Aldrich, Buchs, Switzerland) and podophyllotoxin (≥98%, Sigma-Aldrich, Buchs, Switzerland) were used as positive controls. Growth inhibition assays were meant to give only preliminary information on whether fractions show any bioactivity or not. Due to this explorative nature, this was conducted once. IC50 values represent geometric means of two independent determinations and were calculated by linear regression from the sigmoidal dose inhibition curves using SoftmaxPro (Molecular Devices Cooperation, Sunnyvale, CA, USA) software.
as §2, §3, §4, §5
In vitro activity against L. donovani axenic amastigotes. Amastigotes of L. donovani strain MHOM/ET/67/L82 were grown in axenic culture at 37 °C in SM medium at pH 5.4 supplemented with 10% heat‐inactivated fetal bovine serum under a 5% CO2 atmosphere. Aliquots containing […] amastigotes from the axenic culture (100 μL), with or without a serial compound dilution (as specified before), were seeded in 96‐well plates. After 70 h of incubation, the plates were inspected under an inverted microscope to assure growth of the controls and sterile conditions.
Then, resazurin solution (12.5 mg in 100 mL water, 10 μL) was added to each well and the plates incubated for another 2 h. Finally, the plates were read using the same conditions mentioned for T. brucei rhodesiense. Data were analyzed in the same way. Miltefosine was used as positive control. […]
as §6
as §7, with “The plates were then harvested with a Betaplate™ cell harvester (Wallac, Zurich, Switzerland), and the red blood cells were transferred onto a glass fiber filter then washed with distilled water.” left out

[3] = system: Leishmania donovani intracellular amastigotes; experiment: In vitro activity against intracellular amastigotes of L. donovani in peritoneal murine macrophages; assay type: cell-based; conditions: Macrophage
Method: as §1, §2, §3
Serial compound dilutions were prepared as before. […] The dried filters were inserted into a plastic foil with 10 mL of scintillation fluid and counted in a Betaplate™ liquid scintillation counter (Wallac, Zurich, Switzerland). […]
as §8
as §9, with “Software. Infected and non‐infected macrophages, as well as the number of intracellular parasites, were recorded.” for “Software.”

[4] = system: Leishmania donovani axenic amastigotes (MHOM-ET-67/L82 strain); design: method as in PMID 21157686; conditions: cited from earlier work
[5] = system: P. falciparum NF54 strain erythrocytic stages; design: method as in PMID 21157686; conditions: cited from earlier work
[6] = geometric mean of two independent determinations (lower; upper)
[7] = geometric mean of two independent determinations

IC50 [3] | SMILES | IC50 at 70 h [1, 6] [µg/mL] | IC50 at 70 h [1, 7] [µM] | SI (selectivity index) ([2]; L6 cytotoxicity vs L. donovani axenic amastigotes) | IC50 [2, 7] [µM] | IC50 [2, 6] [µg/mL] | activity against L. donovani axenic amastigotes [4] | antiplasmodial activity in vitro [5]
– | C[C@H]1[C@H](C)CC[C@]2(C)CC[C@]3(C)C(=CC[C@@H]4[C@@]5(C)CC[C@@H](O)[C@](C)(C(=O)O)[C@@H]5CC[C@]43C)[C@H]12 [Compound 3, β-boswellic acid] | 15 | 33 | 6.2 | 5.3 | 2.4 | – | –
1.9 µg/mL and 4.7 µM | CCCCCCCCCCCCCCCCOP(=O)([O-])OCC[N+](C)(C)C [PCM, miltefosine] | – | – | – | 0.12 | 0.047 | – | –
– | COc1cc([C@@H]2c3cc4c(cc3[C@H](O)[C@H]3COC(=O)[C@H]23)OCO4)cc(OC)c1OC [PCP, podophyllotoxin] | 0.009 | 0.02 | – | – | – | – | –
– | C/C1=C\CC/C(C)=C/C[C@](O)(C(C)C)CC/C(C)=C/CC1 [Serratol] | – | – | – | – | – | essentially inactive | antiplasmodial activity
